Consider 5 compounds from ChEMBL document CHEMBL1145680, “Bioactive Norlignan Glucosides from Curculigo capitulata” (1997).

Experiment [1] concerns Heart. As to the kind of experiment: Antiarrhythmic activity against ouabain-induced arrhythmia in guinea pig right ventricle assessed as reversal of cardiac arrhythmia to normal rhythm at 3 uM. It is filed as functional, tissue-based. The conditions noted are these: Cavia porcellus.
Experiment [2] deals with Heart. As to the kind of experiment: Antiarrhythmic activity against ouabain-induced arrhythmia in guinea pig right ventricle assessed as reversal of cardiac arrhythmia to normal rhythm at 1 uM. The experiment is classed as functional, tissue-based. To be noted: Cavia porcellus.
The subject of experiment [3] is Heart. Briefly: Antiarrhythmic activity against ouabain-induced arrhythmia in guinea pig right atria assessed as reversal of cardiac arrhythmia to normal rhythm at 30 uM. The experiment is classed as functional, tissue-based. The conditions noted are these: Cavia porcellus.
Experiment [4] has as its system Heart. As to the kind of experiment: Antiarrhythmic activity against ouabain-induced arrhythmia in guinea pig right atria assessed as reversal of cardiac arrhythmia to normal rhythm at 10 uM. It is filed as functional, tissue-based. The conditions noted are these: Cavia porcellus.
Experiment [5] has as its system Heart. As to the kind of experiment: Antiarrhythmic activity against ouabain-induced arrhythmia in guinea pig right atria assessed as reversal of cardiac arrhythmia to normal rhythm at 3 uM. It is filed as functional, tissue-based. The conditions noted are these: Cavia porcellus.
Experiment [6] relates to Heart. As to the kind of experiment: Antiarrhythmic activity against ouabain-induced arrhythmia in guinea pig right atria assessed as reversal of cardiac arrhythmia to normal rhythm at 1 uM. It is filed as functional, tissue-based. The conditions noted are these: Cavia porcellus.
Experiment [7] is described as follows: Effect on 2 Hz electrically driven contractile tension in WKY rat right ventricle at 30 uM relative to control. The experiment is classed as functional, Heart right ventricle.
Experiment [8] is described as follows: Effect on 2 Hz electrically driven contractile tension in WKY rat right ventricle at 10 uM relative to control. It is filed as functional, Heart right ventricle.
Experiment [9] in a line: Effect on 2 Hz electrically driven contractile tension in WKY rat right ventricle at 3 uM relative to control. The experiment is classed as functional, Heart right ventricle.
Experiment [10] can be described thus: Effect on 2 Hz electrically driven contractile tension in WKY rat right ventricle at 1 uM relative to control. It is filed as functional, Heart right ventricle.
Experiment [11] deals with Left cardiac atrium. As to the kind of experiment: Effect on 2 Hz electrically driven contractile tension in WKY rat left atria at 30 uM relative to control. The experiment is classed as functional.
Experiment [12] deals with Left cardiac atrium. As to the kind of experiment: Effect on 2 Hz electrically driven contractile tension in WKY rat left atria at 10 uM relative to control. The experiment is classed as functional.
Experiment [13] concerns Left cardiac atrium. Briefly: Effect on 2 Hz electrically driven contractile tension in WKY rat left atria at 3 uM relative to control. It is filed as functional.
The test system of experiment [14] is Left cardiac atrium. As to the kind of experiment: Effect on 2 Hz electrically driven contractile tension in WKY rat left atria at 1 uM relative to control. The experiment is classed as functional.
The subject of experiment [15] is Heart. Briefly: Antiarrhythmic activity against ouabain-induced arrhythmia in guinea pig right ventricle assessed as reversal of cardiac arrhythmia to normal rhythm at 10 uM. It is filed as functional, tissue-based. To be noted: Cavia porcellus.
In experiment [16] the test system is Heart. As to the kind of experiment: Antiarrhythmic activity against ouabain-induced arrhythmia in guinea pig right ventricle assessed as reversal of cardiac arrhythmia to normal rhythm at 30 uM. To be noted: Cavia porcellus. The experiment is classed as functional, tissue-based.
For experiment [17], the system named is Right cardiac atrium. Briefly: Effect on spontaneous contractile tension in WKY rat right atria at 1 uM relative to control.
Experiment [18] has as its system Right cardiac atrium. As to the kind of experiment: Effect on spontaneous contractile tension in WKY rat right atria at 3 uM relative to control.
Experiment [19] relates to Right cardiac atrium. As to the kind of experiment: Effect on spontaneous contractile tension in WKY rat right atria at 10 uM relative to control.
Experiment [20] relates to Right cardiac atrium. Briefly: Effect on spontaneous contractile tension in WKY rat right atria at 30 uM relative to control.
Experiment [21] deals with Heart. Briefly: Effect on spontaneously beating heart rate in WKY rat right atria at 1 uM relative to control.
The test system of experiment [22] is Heart. Briefly: Effect on spontaneously beating heart rate in WKY rat right atria at 3 uM relative to control.
Experiment [23] has as its system Heart. Briefly: Effect on spontaneously beating heart rate in WKY rat right atria at 10 uM relative to control.
The test system of experiment [24] is Heart. As to the kind of experiment: Effect on spontaneously beating heart rate in WKY rat right atria at 30 uM relative to control.
Experiment [25] concerns Heart. Briefly: Effect on spontaneously beating heart rate in WKY rat right atria at 0.3 uM relative to control.
In experiment [26] the test system is Heart. Briefly: Antiarrhythmic activity against ouabain-induced arrhythmia in guinea pig left atria assessed as reversal of cardiac arrhythmia to normal rhythm at 3 uM. It is filed as functional, tissue-based. To be noted: Cavia porcellus.
The subject of experiment [27] is Heart. As to the kind of experiment: Antiarrhythmic activity against ouabain-induced arrhythmia in guinea pig left atria assessed as reversal of cardiac arrhythmia to normal rhythm at 1 uM. The experiment is classed as functional, tissue-based. The conditions noted are these: Cavia porcellus.
Experiment [28] is described as follows: Effect on 2 Hz electrically driven contractile tension in WKY rat right ventricle at 0.3 uM relative to control. The experiment is classed as functional, Heart right ventricle.
The subject of experiment [29] is Left cardiac atrium. Briefly: Effect on 2 Hz electrically driven contractile tension in WKY rat left atria at 0.3 uM relative to control. It is filed as functional.
In experiment [30] the test system is Right cardiac atrium. Briefly: Effect on spontaneous contractile tension in WKY rat right atria at 0.3 uM relative to control.

The source made the active and inactive calls. The rule behind the calls is not given here.

Take `OC[C@H]1O[C@@H](O[C@@H](CC#Cc2ccc(O)cc2)[C@H](O)c2ccc(O)c(O)c2)[C@H](O)[C@@H](O)[C@@H]1O`: the result in the experiment with Heart [1], in the experiment on Heart [2], in the experiment on Heart [3], in the experiment with Heart [4], with Heart [5] and in the experiment on Heart [6] was inactive. In addition, the outcome with Heart [15] and in the experiment with Heart [16] was inactive. In addition, the Activity in [7] amounted to 94.2%; in [8], 95.2%; in [9] it was 99.2%; in experiment [10], 98.4%; in the experiment with Left cardiac atrium [11] it was 116.3%; in the experiment on Left cardiac atrium [12] it was 119.3%. In addition, the Activity with Left cardiac atrium [13] is on record as 111.5%; with Left cardiac atrium [14] it was 106.8%; in the experiment with Right cardiac atrium [17] it was 97.5%; in the experiment with Right cardiac atrium [18] it was 98.3%; in the experiment with Right cardiac atrium [19] it was 94.5%; with Right cardiac atrium [20], 94.8%. The Activity in the experiment with Heart [21] is reported as 97.5%; in the experiment with Heart [22], 97.5%; with Heart [23], 98.5%; in the experiment on Heart [24] it was 98.5%; in the experiment with Heart [25], 100%.

As for `OC[C@H]1O[C@@H](O[C@@H](CC#Cc2ccc(O)c(O)c2)[C@H](O)c2ccc(O)c(O)c2)[C@H](O)[C@@H](O)[C@@H]1O` [NYASICOSIDE], the outcome in the experiment with Heart [1], with Heart [2] and in the experiment with Heart [27] was inactive. For the same compound, in the experiment on Heart [26], the result was Active. The Activity is 74.6% in [7]; 78.2% in experiment [8]; 83.6% in [9]; 84.8% in [10]; 92.3% in experiment [28]; 98% with Left cardiac atrium [11]. For the same compound, the Activity was 100.3% with Left cardiac atrium [12]; 104.5% with Left cardiac atrium [13]; 105.8% in the experiment on Left cardiac atrium [14]; 108.3% in the experiment on Left cardiac atrium [29]; 94.5% with Right cardiac atrium [17]; 92% with Right cardiac atrium [18]. Moreover, the Activity amounted to 83.3% in the experiment on Right cardiac atrium [19]; 78% in the experiment with Right cardiac atrium [20]; 98.8% in the experiment on Heart [21]; 97.4% in the experiment with Heart [22]; 98.5% with Heart [23]; 98.5% in the experiment with Heart [24]. The figures for the Activity in the experiment on Right cardiac atrium [30] and with Heart [25] were 96.8% and 100%, respectively.

For the compound `CCCCO[C@@H](c1ccc(O)c(O)c1)[C@H](CC#Cc1ccc(O)c(O)c1)O[C@@H]1O[C@H](CO)[C@@H](O)[C@H](O)[C@H]1O`, the result with Heart [1], in the experiment with Heart [2], in the experiment with Heart [4] and in the experiment on Heart [15] was inactive. Further, the Activity in experiment [7] worked out at 92.2%; in [8], 96.8%; in experiment [9], 100.4%; in [10], 100%; in [28], 102%; in the experiment with Left cardiac atrium [11], 103.8%. The Activity was found to be 105% in the experiment with Left cardiac atrium [12]; 101.1% in the experiment with Left cardiac atrium [13]; 95.3% with Left cardiac atrium [14]; 98.8% in the experiment with Left cardiac atrium [29]; 94.3% in the experiment with Right cardiac atrium [17]; 91.6% with Right cardiac atrium [18]. Moreover, the Activity in the experiment with Right cardiac atrium [19] was 87.8%; in the experiment with Right cardiac atrium [20], 86.4%; with Heart [21], 99%; in the experiment with Heart [22], 98.4%; in the experiment with Heart [23], 98.4%; in the experiment with Heart [24] it was 97.4%. The Activity is given as 95.5% in the experiment on Right cardiac atrium [30] and 100% with Heart [25].

For `CO[C@H](c1ccc(O)c(O)c1)[C@H](CC#Cc1ccc(O)c(O)c1)O[C@@H]1O[C@H](CO)[C@@H](O)[C@H](O)[C@H]1O`, the result with Heart [2] and in the experiment on Heart [26] was inactive. In addition, the Activity is given as 99.3% in [7]; 104.3% in [8]; 106.3% in experiment [9]; 106.7% in experiment [10]; 89.7% in the experiment on Left cardiac atrium [11]; 102.3% in the experiment on Left cardiac atrium [12]. Further, the Activity with Left cardiac atrium [13] came to 101.3%; in the experiment on Left cardiac atrium [14] it was 103%; in the experiment with Right cardiac atrium [17], 99%; in the experiment with Right cardiac atrium [18], 99%; in the experiment with Right cardiac atrium [19], 100.3%; with Right cardiac atrium [20], 101.7%. In addition, the Activity is recorded as 100% with Heart [21], 103% with Heart [22], 103% in the experiment on Heart [23] and 103% in the experiment on Heart [24].

For the compound `CCCCO[C@H](c1ccc(O)c(O)c1)[C@H](CC#Cc1ccc(O)c(O)c1)O[C@@H]1O[C@H](CO)[C@@H](O)[C@H](O)[C@H]1O`, the outcome in the experiment with Heart [2] was inactive. Moreover, the outcome in the experiment on Heart [26] was Active. The Activity came out at 88.2% in [7]; 95.4% in experiment [8]; 96.8% in [9]; 95.8% in experiment [10]; 99% in [28]; 92.5% with Left cardiac atrium [11]. For the same compound, the Activity came to 89.4% in the experiment on Left cardiac atrium [12]; 91.2% in the experiment on Left cardiac atrium [13]; 96% in the experiment on Left cardiac atrium [14]; 98.8% in the experiment with Left cardiac atrium [29]; 91% with Right cardiac atrium [17]; 89.6% with Right cardiac atrium [18]. The Activity in the experiment on Right cardiac atrium [19] is 86.2%; in the experiment with Right cardiac atrium [20] it was 83.6%; with Heart [21], 100%; with Heart [22], 99%; with Heart [23], 99.8%; with Heart [24], 97.6%. For the same compound, the Activity turned out to be 94% with Right cardiac atrium [30] and 100% in the experiment on Heart [25].
